Laboratory results taken from patent US7713960B2, “Inhibition of the Raf/Mek/P-Erk pathway for treating cancer” (University of South Florida, priority 2005, dated 2010).
Structures can show the parent of a compound that is named as a salt.

Key:
MDA-MB-231 cells = assay: Nude mouse xenograft model, MDA-MB-231 (mammary fat pads); type: in vivo, nude mice; details: MDA-MB-231 xenograft; i.p. 200 mpk/day
Excerpt: Anti-tumor activity in nude mouse xenograft model—Female athymic nude (nu/nu) mice, 5-6 weeks old, were purchased from Charles River (Wilmington, Mass.) and allowed to acclimate in the animal facility for one week. After harvesting, A-549, SNB-19, ACHN, and HCT-116 cells were, resuspended in sterile PBS, and injected s.c. into the right and left flanks (10×10^6 cells per flank) of the mice as previously described (Sun et al., 2005). For MDA-MB-231, cells were harvested and resuspended in PBS (10×10^6 cells per 50 μl) and an equal volume of Matrigel (BD Biosciences, San Jose, Calif.). 100 μl of MDA-MB-231 cells in PBS/Matrigel were injected s.c. into the mammary fat pads between the 2nd and 3rd nipples on each side of the mice. Once the tumors reached approximately 200-300 mm^3 the mice were randomized and treated i.p. with 0.1 ml vehicle (PBS) or ARA-211. Each treatment group consisted of five mice (2 tumors per mouse, a total of 10 tumors). The tumor volumes were determined by measuring the length (l) and width (w) and calculating the volume (V=w^2l/2). Statistical significance between the control and treated animals was determined using a student's t test.

P-Erk 1/2 = P-Erk 1/2 levels (Western blotting), SNB-19; type: cell-based, human
Protocol: Western Blotting—Treated cell samples were lysed in 30 mM HEPES, 10 mM NaCl, 5 mM MgCl2, 25 mM NaF, 1 mM EGTA, 1% Triton-X-100, 10% Glycerol, 2 mM Sodium orthovanidate, 10 μg/mL aprotinin, 10 μg/mL soybean trypsin inhibitor, 25 μg/mL leupeptin, 2 mM phenylmethylsulfonylfluoride (PMSF), 6.4 mg/mL p-nitrophenylphosphate for 30 minutes at 4° C., and proteins run on SDS-PAGE gels then transferred to nitrocellulose membranes. Membranes were blocked in either 5% milk in PBS, pH 7.4, containing 0.1% Tween-20 (PBS-T) or 1% BSA in TBS, pH 7.5, containing 0.1% Tween-20 (TBS-T). Phospho-STAT3 and phospho-AKT antibodies were diluted in 1% BSA in TBS-T while phospho-c-Raf, phospho-Mek, and phospho-p44/p42 MAPK antibodies (Cell Signaling) were diluted in 5% milk in PBS-T for either 1 hour at room temperature or overnight at 4° C. HRP-conjugated secondary antibodies (Jackson ImmunoResearch, West Grove, Pa.) were diluted in 5% milk in PBS-T or TBS-T at a 1:1000 dilution for one hour at room temperature. Western blots results were visualized using enhanced chemiluminescence. Stripping of the membranes for reblotting was done using stripping buffer (62.5 mM Tris pH 7.6, 2% SDS, 0.7% 2-mercaptoethanol) at 50° C. for 30 minutes.

For `CC(C)(C)NCC(O)c1ccc(O)c(CO)n1` (centres unmarked) [ARA-211, 2-hydroxymethyl-3-hydroxy-6-(1-hydroxy-2-tert-butylaminoethyl) pyridine, dihydrochloride], the growth of tumors (MDA-MB-231 cells) was “caused tumor regression” and the “P-Erk ½ (% Inhibition)” value (P-Erk 1/2) was 0%.
